From US4569792A, “Anti-diabetic compounds” (Eli Lilly and Company, priority 1984, dated 1986)

Assays:
Settings in all cases: relative to human proinsulin = 1
[1] = tested on: insulin receptor (125I-labeled insulin binding to isolated fat cells); assay: Isolated Fat Cell Radioreceptor Assay
Procedure: Isolated fat cells were prepared by a modification [Huber, C. T., Solomon, S. S., and Duckworth, W. C., J. Clin. Invest. […] All incubations were in Krebs-Ringer-Hepes (KRH) buffer, pH 7.4, with 4% bovine serum albumin (BSA) in a total volume of 2 ml. […] At selected times, triplicate 300 μl aliquots were removed and added to microfuge tubes containing 100 μl dinonyl phthalate [see Gliemann, J., Osterlind, K., Vinten, J., and Gammeltoft, S., Biochem. Biophys. Acta. […] After centrifugation for one minute in a microfuge, the tubes were cut through the oil layer, and the cell pellet was counted using a gamma counter to determine binding.

isolated rat adipocytes = assay: Biological Activity in Isolated Rat Adipocytes (incorporation of 2-3H-glucose in total fat cell lipid); type: cell-based
Procedure: Adipocytes were prepared from epididymal fat pads by a modification (Huber, supra) of the collagenase digestion procedure of Rodbell, supra. Krebs-Ringer-HEPES (KRH) buffer, pH 7.4, containing 4% bovine serum albumin and 0.55 mM glucose was used in all isolation and incubation steps.
Biological activity was assessed according to the method of Moody, A. J., Stan, M. A., Stan, M., and Glieman, J., Horm. Metab. Res. 6, 12-16 (1974) by monitoring the incorporation of 2-^3 H-glucose in total fat cell lipid. […] Radioactivity was determined in a Searle Isocap 300 liquid scintillation counter at an efficiency of approximately 30%. Blanks were prepared in which the scintillation fluid was added to the vials prior to the addition of cells. The average counts obtained from these vials were subtracted from those observed in all other samples.
Competitive binding curves and biological activity dose-response curves were analyzed using the PREFIT and ALLFIT programs [DeLean, A., Munson, P. J., and Rodbard, D., Am. J. Physiol. 235, E97-E102 (1978)] based on a four-parameter logistic model. These analyses indicated the concentration of insulin or proinsulin necessary to produce a half-maximal response, as well as the maximal and minimal values. All values are presented as the mean ± SEM.

[2] = tested on: insulin receptor (125I-insulin binding to IM-9 cells); assay: IM-9 Radioreceptor Assay
Procedure: IM-9 cells were grown in RPMI media containing 2mM glutamine, 25 mM HEPES, and 10% fetal bovine serum. […] Incubations were carried out in 1.5 ml microfuge tubes at 15° C. for two hours. Concentrations of stock solutions containing insulin, proinsulin, or compound of this invention used in the binding studies were established by amino acid analysis and by their absorbance at 276 nm. The cells were resuspended during the assay every 30 minutes by inverting the tubes several times. At the end of the incubation, the tubes were centrifuged for one minute in a Beckman Microfuge, the supernatant was aspirated, the tips of the tubes containing the cell pellet were excised, and the radioactivity was measured.

Measured: Relative Potency

Human Proinsulin
1: [1] | isolated rat adipocytes | [2]
